From patent EP0198522A1, “Heterocyclic herbicides” (SHELL INTERNATIONALE RESEARCH MAATSCHAPPIJ B.V., priority 1985, dated 1986)

Columns and labels:
Assay type in all cases: in vivo
[1] = test system: barnyard grass, Echinochloa crusgalli; assay: Herbicidal activity, post-emergence foliar spray test; conditions: assessed visually twelve days after spraying, 0-9 scale, 0 = growth as untreated control, 9 = death
Description: (§1) To evaluate their herbicidal activity, compounds according to the invention were tested using as representative range of plants: maize, Zea mays (Mz); rice, Oryza sativa (R); barnyard grass, Echinochloa crusgalli (BG); oat, Avena sativa (0); linseed, Linum usitatissisum (L); mustard, Sinapsis alba (M); sugar beet, Beta vulgaris (SB) and soya bean, Glycine max (S).
(§2) The tests fall into two categories, pre-emergence and post-emergence. […] The post-emergence tests involved two types of test, viz., soil drench and foliar spray tests. In the soil drench tests the soil in which the seedling plants of the above species were growing was drenched with a liquid formulation containing a compound of the invention, and in the foliar spray tests the seedling plants were sprayed with such a formulation.
(§3) The soil used in the tests was a prepared horticultural loam.
(§4) These acetone solutions were diluted with water and the resulting formulations applied at dosage levels corresponding to 5 kg or 1 kg of active material per hectare in a volume equivalent to 600 litres per hectare in the soil spray and foliar spray test, and at a dosage of level equivalent to 10 kilograms of active material per hectare in a volume equivalent to approximately 3,000 litres per hectare in the soil drench tests.
(§5) In the pre-emexgence tests untreated sown soil and in the post-emergence tests untreated soil bearing seedling plants were used as controls.
(§6) The herbicidal effects of the test compounds were assessed visually twelve days after spraying the foliage and the soil, and thirteen days after drenching the soil and were recorded on a 0-9 scale. A rating 0 indicates growth as untreated control, a rating 9 indicates death. An increase of 1 unit on the linear scale approximates to a 10% increase in the level of effect.

[2] = test system: linseed, Linum usitatissisum; assay: as above; conditions: assessed visually twelve days after spraying, 0-9 scale, 0 = growth as untreated control, 9 = death
Description: as §1, §2, §3, §4, §5, §6

maize, Zea mays [3] = assay: as above; conditions: assessed visually twelve days after spraying, 0-9 scale, 0 = growth as untreated control, 9 = death
Description: as §1, §2, §3, §4, §5, §6

mustard, Sinapsis alba [4] = assay: as above; conditions: assessed visually twelve days after spraying, 0-9 scale, 0 = growth as untreated control, 9 = death
Description: as §1, §2, §3, §4, §5, §6

oat, Avena sativa [5] = assay: as above; conditions: assessed visually twelve days after spraying, 0-9 scale, 0 = growth as untreated control, 9 = death
Description: as §1, §2, §3, §4, §5, §6

rice, Oryza sativa [6] = assay: as above; conditions: assessed visually twelve days after spraying, 0-9 scale, 0 = growth as untreated control, 9 = death
Description: as §1, §2, §3, §4, §5, §6

soya bean, Glycine max [7] = assay: as above; conditions: assessed visually twelve days after spraying, 0-9 scale, 0 = growth as untreated control, 9 = death
Description: as §1, §2, §3, §4, §5, §6

[8] = test system: sugar beet, Beta vulgaris; assay: as above; conditions: assessed visually twelve days after spraying, 0-9 scale, 0 = growth as untreated control, 9 = death
Description: as §1, §2, §3, §4, §5, §6

[9] = test system: barnyard grass, Echinochloa crusgalli; assay: Herbicidal activity, pre-emergence test (soil spray); conditions: assessed visually twelve days after spraying, 0-9 scale, 0 = growth as untreated control, 9 = death
Description: as §1, §2, §3, §4, §5, §6

[10] = test system: linseed, Linum usitatissisum; assay: as above; conditions: assessed visually twelve days after spraying, 0-9 scale, 0 = growth as untreated control, 9 = death
Description: as §1, §2, §3, §4, §5, §6

maize, Zea mays [11] = assay: as above; conditions: assessed visually twelve days after spraying, 0-9 scale, 0 = growth as untreated control, 9 = death
Description: as §1, §2, §3, §4, §5, §6

mustard, Sinapsis alba [12] = assay: as above; conditions: assessed visually twelve days after spraying, 0-9 scale, 0 = growth as untreated control, 9 = death
Description: as §1, §2, §3, §4, §5, §6

oat, Avena sativa [13] = assay: as above; conditions: assessed visually twelve days after spraying, 0-9 scale, 0 = growth as untreated control, 9 = death
Description: as §1, §2, §3, §4, §5, §6

rice, Oryza sativa [14] = assay: as above; conditions: assessed visually twelve days after spraying, 0-9 scale, 0 = growth as untreated control, 9 = death
Description: as §1, §2, §3, §4, §5, §6

soya bean, Glycine max [15] = assay: as above; conditions: assessed visually twelve days after spraying, 0-9 scale, 0 = growth as untreated control, 9 = death
Description: as §1, §2, §3, §4, §5, §6

[16] = test system: sugar beet, Beta vulgaris; assay: as above; conditions: assessed visually twelve days after spraying, 0-9 scale, 0 = growth as untreated control, 9 = death
Description: as §1, §2, §3, §4, §5, §6

[17] = test system: barnyard grass, Echinochloa crusgalli; assay: Herbicidal activity, post-emergence soil drench test; conditions: 10 kg/ha soil drench; assessed visually thirteen days after drenching; 0-9 scale, 0 = growth as untreated control, 9 = death
Description: as §1, §2, §3, §4, §5, §6

[18] = test system: linseed, Linum usitatissisum; assay: as above; conditions: 10 kg/ha soil drench; assessed visually thirteen days after drenching; 0-9 scale, 0 = growth as untreated control, 9 = death
Description: as §1, §2, §3, §4, §5, §6

maize, Zea mays [19] = assay: as above; conditions: 10 kg/ha soil drench; assessed visually thirteen days after drenching; 0-9 scale, 0 = growth as untreated control, 9 = death
Description: as §1, §2, §3, §4, §5, §6

mustard, Sinapsis alba [20] = assay: as above; conditions: 10 kg/ha soil drench; assessed visually thirteen days after drenching; 0-9 scale, 0 = growth as untreated control, 9 = death
Description: as §1, §2, §3, §4, §5, §6

oat, Avena sativa [21] = assay: as above; conditions: 10 kg/ha soil drench; assessed visually thirteen days after drenching; 0-9 scale, 0 = growth as untreated control, 9 = death
Description: as §1, §2, §3, §4, §5, §6

rice, Oryza sativa [22] = assay: as above; conditions: 10 kg/ha soil drench; assessed visually thirteen days after drenching; 0-9 scale, 0 = growth as untreated control, 9 = death
Description: as §1, §2, §3, §4, §5, §6

soya bean, Glycine max [23] = assay: as above; conditions: 10 kg/ha soil drench; assessed visually thirteen days after drenching; 0-9 scale, 0 = growth as untreated control, 9 = death
Description: as §1, §2, §3, §4, §5, §6

[24] = test system: sugar beet, Beta vulgaris; assay: as above; conditions: 10 kg/ha soil drench; assessed visually thirteen days after drenching; 0-9 scale, 0 = growth as untreated control, 9 = death
Description: as §1, §2, §3, §4, §5, §6

SMILES | Foliar spray BG (herbicidal effect rating) ([1]; Dosage 1 kg/ha) | Foliar spray BG (herbicidal effect rating) ([1]; Dosage 5 kg/ha) | Foliar spray L (herbicidal effect rating) ([2]; Dosage 1 kg/ha) | Foliar spray L (herbicidal effect rating) ([2]; Dosage 5 kg/ha) | Foliar spray Mz (herbicidal effect rating) (maize, Zea mays [3]; Dosage 1 kg/ha) | Foliar spray Mz (herbicidal effect rating) (maize, Zea mays [3]; Dosage 5 kg/ha) | Foliar spray M (herbicidal effect rating) (mustard, Sinapsis alba [4]; Dosage 1 kg/ha) | Foliar spray M (herbicidal effect rating) (mustard, Sinapsis alba [4]; Dosage 5 kg/ha) | Foliar spray O (herbicidal effect rating) (oat, Avena sativa [5]; Dosage 1 kg/ha) | Foliar spray O (herbicidal effect rating) (oat, Avena sativa [5]; Dosage 5 kg/ha) | Foliar spray R (herbicidal effect rating) (rice, Oryza sativa [6]; Dosage 1 kg/ha) | Foliar spray R (herbicidal effect rating) (rice, Oryza sativa [6]; Dosage 5 kg/ha) | Foliar spray S (herbicidal effect rating) (soya bean, Glycine max [7]; Dosage 1 kg/ha) | Foliar spray S (herbicidal effect rating) (soya bean, Glycine max [7]; Dosage 5 kg/ha) | Foliar spray SB (herbicidal effect rating) ([8]; Dosage 1 kg/ha) | Foliar spray SB (herbicidal effect rating) ([8]; Dosage 5 kg/ha) | Pre-emergence BG (herbicidal effect rating) ([9]; Dosage 1 kg/ha) | Pre-emergence BG (herbicidal effect rating) ([9]; Dosage 5 kg/ha) | Pre-emergence L (herbicidal effect rating) ([10]; Dosage 1 kg/ha) | Pre-emergence L (herbicidal effect rating) ([10]; Dosage 5 kg/ha) | also measured
CC(C)C1(C)NC(c2cc3c(cc2C(=O)O)OCO3)=NC1=O (stereo not drawn) [Example 7, 2-(5-isopropyl-5-methyl-4-oxo-2-imidazolin-2-yl)-[1,3]-dioxolo [4,5-d]benzoic acid] | 5 | 6 | 3 | 4 | 2 | 3 | 7 | 7 | 1 | 2 | 2 | 3 | 0 | 4 | 6 | 7 | 3 | 7 | 3 | 7 | Pre-emergence Mz (herbicidal effect rating) (maize, Zea mays [11]; Dosage 1 kg/ha): 1; Pre-emergence Mz (herbicidal effect rating) (maize, Zea mays [11]; Dosage 5 kg/ha): 6; Pre-emergence M (herbicidal effect rating) (mustard, Sinapsis alba [12]; Dosage 1 kg/ha): 4; Pre-emergence M (herbicidal effect rating) (mustard, Sinapsis alba [12]; Dosage 5 kg/ha): 7; Pre-emergence O (herbicidal effect rating) (oat, Avena sativa [13]; Dosage 1 kg/ha): 0; Pre-emergence O (herbicidal effect rating) (oat, Avena sativa [13]; Dosage 5 kg/ha): 5; Pre-emergence R (herbicidal effect rating) (rice, Oryza sativa [14]; Dosage 1 kg/ha): 8; Pre-emergence R (herbicidal effect rating) (rice, Oryza sativa [14]; Dosage 5 kg/ha): 9; Pre-emergence S (herbicidal effect rating) (soya bean, Glycine max [15]; Dosage 1 kg/ha): 0; Pre-emergence S (herbicidal effect rating) (soya bean, Glycine max [15]; Dosage 5 kg/ha): 1; Pre-emergence SB (herbicidal effect rating) ([16]; Dosage 1 kg/ha): 7; Pre-emergence SB (herbicidal effect rating) ([16]; Dosage 5 kg/ha): 8
COC(=O)c1cc2cc3c(cc2nc1C1=NC(C)(C(C)C)C(=O)N1C(C)=O)OCO3 (stereo not drawn) [Example 3, Methyl-2-(1-acetyl-4-isopropyl-4-methyl-5-oxo-2-imidazolin-2-yl)-[1,3]-dioxolo[4,5-g] quinoline-3-carboxylate] | 5 | 7 | 5 | 6 | 4 | 6 | 3 | 6 | 3 | 5 | 2 | 5 | 1 | 3 | 5 | 7 | 4 | 7 | 5 | 8 | Soil drench 10/kg/ha BG (herbicidal effect rating) [17]: 7; Soil drench 10/kg/ha L (herbicidal effect rating) [18]: 6; Soil drench 10/kg/ha Mz (herbicidal effect rating) (maize, Zea mays [19]): 5; Soil drench 10/kg/ha M (herbicidal effect rating) (mustard, Sinapsis alba [20]): 7; Soil drench 10/kg/ha O (herbicidal effect rating) (oat, Avena sativa [21]): 6; Soil drench 10/kg/ha R (herbicidal effect rating) (rice, Oryza sativa [22]): 5; Soil drench 10/kg/ha S (herbicidal effect rating) (soya bean, Glycine max [23]): 0; Soil drench 10/kg/ha SB (herbicidal effect rating) [24]: 8; Pre-emergence Mz (herbicidal effect rating) (maize, Zea mays [11]; Dosage 1 kg/ha): 4; Pre-emergence Mz (herbicidal effect rating) (maize, Zea mays [11]; Dosage 5 kg/ha): 8; Pre-emergence M (herbicidal effect rating) (mustard, Sinapsis alba [12]; Dosage 1 kg/ha): 2; Pre-emergence M (herbicidal effect rating) (mustard, Sinapsis alba [12]; Dosage 5 kg/ha): 4; Pre-emergence O (herbicidal effect rating) (oat, Avena sativa [13]; Dosage 1 kg/ha): 4; Pre-emergence O (herbicidal effect rating) (oat, Avena sativa [13]; Dosage 5 kg/ha): 6; Pre-emergence R (herbicidal effect rating) (rice, Oryza sativa [14]; Dosage 1 kg/ha): 2; Pre-emergence R (herbicidal effect rating) (rice, Oryza sativa [14]; Dosage 5 kg/ha): 5; Pre-emergence S (herbicidal effect rating) (soya bean, Glycine max [15]; Dosage 1 kg/ha): 0; Pre-emergence S (herbicidal effect rating) (soya bean, Glycine max [15]; Dosage 5 kg/ha): 0; Pre-emergence SB (herbicidal effect rating) ([16]; Dosage 1 kg/ha): 4; Pre-emergence SB (herbicidal effect rating) ([16]; Dosage 5 kg/ha): 8
